# According to patent EP0719552A2, “Pharmaceutical composition comprising a quinone derivative or a hydroquinone thereof for treating dermatitis” (Takeda Chemical Industries, Ltd., priority 1994, dated 1996):
# Experiments:
# [1] = system: IL-4; assay: Ovalbumin-immunized mouse splenocytes (oral dosing): IL-4 production, ELISA; format: in vivo, Balb/c mice; conditions: 100 mg/kg orally for two weeks, 10 ug/ml OVA 3 days
# Protocol: (§1) Method: Seven-week-old made Balb/c mice (Charles River Japan) were used. Mice were immunized i.p. with 1 ug ovalbumin (OVA, albumin chicken egg grade III; Sigma, USA) in aluminium hydroxide hydrate gel suspension (Alum, ISL Co., Ltd., Japan) twice at an unterval of a week. Two weeks after first immunization, spleens were asceptically removed, and single cell suspension was prepared in RPMI-1640 (Bio Whittaker, Inc., USA) containing 10% heat-inactivated fetal calf serum (FCS, Bio Whittaker, Inc., USA), 50 uM 2-mercaptoethanol, 2 mM L-glutamine, and 20 ug/ml gentamicin. Compound 1((+)-7-(3,5,6-trimethyl-1,4-benzoquino-2-yl)-7-phenylheptonoic acid) at 100 mg/kg suspended with 0.5% methyl cellulose (MC) was given orally in a volume of 10 ml/kg for two weeks from a day before first immunization. Splenocytes (3.3 × 10^6 cells) were cultured with 10 ug/ml OVA in 125-ml wells of a 96-well round-bottomed tissue culture plate (Sumitomo Bakelite Co., Ltd., Japan) and were kept in a humidified incubation at 37°C in 5% CO2 in air for three days.
# (§2) To study the effect of the drug on the cytokine production, after centrifuged at 200×g for 5 minutes, the supernatant of the culture well was removed and its IL-4 and IL-5 contents were measured by ELISA kits (Endogen, USA).
# [2] = system: IL-4; assay: Ascaris-immunized mouse splenocytes (in vitro): IL-4 production, ELISA; format: cell-based, Balb/c mice; conditions: Splenocyte, 72 h, 25 µM drug, 40 µg/ml DNP-ascaris, 3 days, production in absence of compound taken as 100%, read-out: Suppression Rate (%) IL-4
# Protocol: (§3) Method: Female Balb/c mice at 9 weeks of age (purchased from Shizuoka Laboratory Animal Center, Japan) were intraperitoneally administered 40 µg/mouse DNP-ascaris (2,4-dinitrophenylated ascaris extract, produced by LSL), together with Freund's complete adjuvant (FCA, produced by Difco, USA), and, 3 weeks later, splenocytes were collected. Splenocyte mixture was prepared from the spleens and suspended in RPMI-1640 medium (produced by Bio Whittaker, Inc., USA) containing inactivated fetal bovine serum (10% v/v, produced by Difco, USA), 2-mercaptoethanol (50 µM), L-glutamine (2 mM) and gentamicin (20 µg/ml) to yield a single cell suspension. After cell number was set to 3.3 × 10^6 cells/ml, DNP-ascaris was added to 96-well round-bottomed plates (produced by Sumitomo Bakelite Co., Ltd., Japan) containing a 25 µM test drug, at 12.5 µg/ml, and cultured at 37°C for 3 days in a 5% carbon dioxide incubator. After completion of cultivation, 3-(4,5-dimethylthiazol-2-yl)-2,5-diphenyl-tetrazolium bromide (MTT, produced by Dojin Kenkyujo, Japan) in PBS buffer was added to each well at 0.86 mg/ml, followed by cultivation in the carbon dioxide incubator for 6 hours. To this culture, a 10% SDS-0.01 N HCl mixture was added at 50 µl per well, followed by incubation in the carbon dioxide incubator for 18 hours, after which absorbance at 620 nm was determined.
# Next, DNP-ascaris was added to a 1.2 × 10^6 cells/ml splenocyte suspension in each 96-well round-bottomed plate containing a drug (25 µM), at 40 µg/ml, and cultured at 37°C for 3 days in the 5% carbon dioxide incubator. After this culture was centrifuged at 200 x g for 5 minutes, the culture supernatant was collected, and, the amount of IL-4 produced in each supernatant was determined by ELISA [mouse IL-4 ELISA kit (produced by Endogen, USA)].
# [3] = system: ascaris-immunized mouse splenocytes; assay: Ascaris-immunized mouse splenocytes (in vitro): DNP-ascaris stimulated growth, MTT; format: cell-based, Balb/c mice; conditions: Splenocyte, 72 h, 25 µM test drug, 12.5 µg/ml DNP-ascaris, 3 days, absorbance in absence of compound taken as 100%, read-out: Suppression Rate (%) MTT
# Protocol: as §3
# [4] = system: IL-5 mRNA; assay: IL-5 mRNA expression in ovalbumin-immunized mouse splenocytes (oral dosing), RT-PCR; format: in vivo, Balb/c mice; conditions: 10 and 100 mg/kg orally for two weeks; splenocytes cultured with 10 ug/ml OVA for 4, 7 and 24 hours; Fig. 1
# Protocol: Method: Eight-week-old male Balb/c mice (Charles River Japan) immunized i.p. with 1 ug OVA absorbed to 1 mg Alum twice at an unterval of a week. Two weeks after the first immunization, splenocytes were prepared in RPMI-1640 (BioWhittaker, Inc., USA) containing 10% heat-inactivated fetal bovine serum (FBS, Bio Whittaker, Inc., USA), 50 uM 2-mercaptoethanol, 2 mM L-glutamine, and 20 ug/ml gentamicin. Compound 1 ((±)-7-(3,5,6-trimethyl-1,4-benzoquino-2-yl)-7-phenylheptonoic acid) at 10 and 100 mg/kg suspended with 0.5% methyl cellulose (MC) was given orally in a volume of 20 ml/kg for two weeks from a day before first immunization. […] Following the heat inactivation at 95°C for 10 min, one fifth of the cDNA mixtures was amplified by Ex Taq DNA polymerase (Takara Shuzoh, Japan) with the appropriate oligonucleatide primers (mouse IL-5 and β-actin amplimer set (Clontech). A DNA Thermal Cycler (Perkin Elmer) was used for 50 DNA amplification cycles, with a denaturation step at 95°C for 1 min, an annealing step at 55°C for 2 min, and an extension step at 72°C for 3 min. Twenty percent of the amplified DNA was analyzed by electrophoresis in a 2% GTG agarose gel. After staining with ethidium bromide, the DNA band was photographed under UV light. The data of the negatives were analyzed by NIH Image 1.55 software. […]
# [5] = system: IL-5; assay: Ovalbumin-immunized mouse splenocytes (oral dosing): IL-5 production, ELISA; format: in vivo, Balb/c mice; conditions: 100 mg/kg orally for two weeks, 10 ug/ml OVA 3 days
# Protocol: as §1, §2
# [6] = system: ascaris-immunized mouse splenocytes; assay: Ascaris-immunized mouse splenocytes (in vivo dosing): DNP-ascaris specific growth response, MTT; set-up: species or system Balb/c mice; conditions: 100 mg/kg/day orally 5 times weekly for 3 weeks; splenocytes cultured with 12.5 µg/ml DNP-ascaris 3 days; absorbance of non-sensitized splenocytes taken as 1 (sensitized 0.5% MC control 5.52)
# Protocol: Method: Female Balb/c mice at 9 weeks of age (purchased from Shizuoka Laboratory Animal Center, Japan) were intraperitoneally administered 40 µg/mouse DNP-ascaris (2,4-dinitrophenylated ascaris extract, produced by LSL) together with Freund's complete adjuvant (FCA, produced by Difco, USA), 3 weeks later, splenocytes were collected. The compound 1((±)-7-(3,5,6-trimethyl-1,4-benzoquino-2-yl)-7-phenylheptonoic acid) was suspended in 0.5% methyl cellulose (MC) and orally administered at 100 mg/kg/day 5 times weekly for 3 weeks, starting at the day before DNP-ascaris administration. After final oral administration, the splenocyte mixture was prepared from the spleens of 5 animals per group, and suspended in RPMI-1640 medium (produced by Bio Whittaker, Inc., USA) containing inactivated fetal bovine serum (10% v/v, produced by Difco, USA), 2-mercaptoethanol (50 µM), L-glutamine (2 mM) and gentamicin (20 µg/ml) to yield a single cell suspension. After cell number was set to 3.3 × 10^6 cells/ml, DNP-ascaris was added to 96-well round-bottomed plates (produced by Sumitomo Bakelite Co., Ltd., Japan) at 12.5 µg/ml, and cultured at 37°C for 3 days in an incubator containing 5% carbon dioxide. […] To this culture, a 10% SDS-0.01N HCl mixture was added at 50 µl per well, followed by incubation in the carbon dioxide incubator for 18 hours, after which absorbance at 620 nm was determined.
# [7] = system: IL-4; assay: Ascaris-immunized mouse splenocytes (in vivo dosing): IL-4 production, ELISA; set-up: species or system Balb/c mice; conditions: 100 mg/kg/day orally 5 times weekly for 3 weeks; splenocytes cultured with 40 µg/ml DNP-ascaris 3 days; non-sensitized taken as 1 (sensitized 0.5% MC control 15.8)
# Protocol: (§4) Method: Female Balb/c mice at 9 weeks of age (purchased from Shizuoka Laboratory Animal Center, Japan) were intraperitoneally administered 40 µg/mouse DNP-ascaris (2,4-dinitrophenylated ascaris extract, produced by LSL) together with Freund's complete adjuvant (FCA, produced by Difco, USA), 3 weeks later, splenocytes were collected. The compound 1((±)-7-(3,5,6-trimethyl-1,4-benzoquino-2-yl)-7-phenylheptonoic acid) was suspended in 0.5% methyl cellulose (MC) and orally administered at 100 mg/kg/day 5 times weekly for 3 weeks, starting at the day before DNP-ascaris administration. […] To this culture, a 10% SDS-0.01N HCl mixture was added at 50 µl per well, followed by incubation in the carbon dioxide incubator for 18 hours, after which absorbance at 620 nm was determined.
# (§5) Next, DNP-ascaris was added to a 1.2 × 10^6 cells/ml splenocyte suspension in each 96-well round-bottomed plate at 40 µg/ml and cultured at 37°C for 3 days in the 5% carbon dioxide incubator. After this culture was centrifuged at 200 x g for 5 minutes, the culture supernatant was collected, and, the amounts of IL-4 and IL-5 produced in each supernatant were determined by ELISA [mouse IL-4 ELISA kit (produced by Endogen, USA); mouse IL-5 ELISA kit (produced by Endogen, USA)].
# [8] = system: IL-5; assay: Ascaris-immunized mouse splenocytes (in vivo dosing): IL-5 production, ELISA; set-up: species or system Balb/c mice; conditions: 100 mg/kg/day orally 5 times weekly for 3 weeks; splenocytes cultured with 40 µg/ml DNP-ascaris 3 days; non-sensitized taken as 1 (sensitized 0.5% MC control 43.3)
# Protocol: as §4, §5
# [9] = system: ovalbumin-immunized mouse splenocytes; assay: Ovalbumin-immunized mouse splenocytes (oral dosing): OVA-specific growth response, MTT; format: in vivo, Balb/c mice; conditions: 100 mg/kg orally for two weeks; splenocytes cultured with 10 ug/ml OVA 3 days; non-sensitized taken as 1 (sensitized 0.5% MC control 2.07)
# Protocol: as §1, with “Splenocytes (3.3 × 10^6 cells) were cultured with 10 ug/ml OVA in 125-ml wells of a 96-well round-bottomed tissue culture plate (Sumitomo Bakelite Co., Ltd., Japan) and were kept in a humidified incubation at 37°C in 5% CO2 in air for three days.” left out
# To study the effect of drug on the proliferation, 50 ul of 3 mg/ml 3(4,5-dimethylthiazol-2-yl)-2,5-diphenyltetrazolium bromide (MTT, Dojinedo Labs., Japan) resolved in phosphate buffered saline (PBS) was added into each well for final 6 hours of culture. The culture was completed by added 50 ul of 10% SDS resolved into 0.1 N HCl solution and after kept in 37°C for 18 hours, the absorbance at 620 nm was measured.
SMILES,inhibition at 25 µM [2] [%],inhibition at 25 µM [3] [%],other results
"CC1=C(C)C(=O)C(C(CCCCCC(=O)O)c2ccccc2)=C(C)C1=O (racemic) [Compound 1, (±)-7-(3,5,6-trimethyl-1,4-benzoquinon-2-yl)-7-phenylheptanoic acid]",15,44,"Cytokine Production, Relative Value Exp. 1 IL-4 ([1]; Exp. 1, non-sensitized taken as 1 (sensitized 0.5% MC control 24.7)): 7.7; Cytokine Production, Relative Value Exp. 2 IL-4 ([1]; Exp. 2, non-sensitized taken as 1 (sensitized 0.5% MC control 14.2)): 6.94; antigen-stimulated IL-5 mRNA expression (ratio to β-actin PCR product) [4]: inhibits antigen-stimulated IL-5 mRNA expression; Cytokine Production, Relative Value Exp. 1 IL-5 ([5]; Exp. 1, non-sensitized taken as 1 (sensitized 0.5% MC control 7.3)): 4.8; Cytokine Production, Relative Value Exp. 2 IL-5 ([5]; Exp. 2, non-sensitized taken as 1 (sensitized 0.5% MC control 31.8)): 21.7; DNP-ascaris Specific Growth Response, Relative Value [6]: 3.37; Cytokine Production, Relative Value IL-4 [7]: 9.21; Cytokine Production, Relative Value IL-5 [8]: 13.6; OVA-Specific Growth Response, Relative Value [9]: 1.75"
CC1=C(C)C(=O)C(C(CCCCCCC(=O)O)c2ccccc2)=C(C)C1=O (stereo not drawn) [Compound 2],38,40,
CC1=C(C)C(=O)C(C(CCC(=O)O)c2ccccc2)=C(C)C1=O (stereo not drawn) [Compound 3],38,36,
CC1=C(C)C(=O)C(C(CCCCCCCCC(=O)O)c2ccccc2)=C(C)C1=O (stereo not drawn) [Compound 4],87,60,
COC1=C(OC)C(=O)C(C(CCCCCO)c2ccc(OC)cc2)=C(C)C1=O (stereo not drawn) [Compound 5],80,46,
COC1=C(OC)C(=O)C(C(CCCCCC(=O)O)c2ccc(C(C)C)cc2)=C(C)C1=O (stereo not drawn) [Compound 6],57,33,
